Measurements from US7544693B2 (priority 2003, dated 2009).

Biological target: α7 nAChR subtype (Rattus norvegicus, UniProt Q05941)
Assay type: binding
Conditions: read-out: KD of radioligand (saturation curves, one site model)

Sequence of α7 nAChR subtype (Q05941 23-502 limits assumed): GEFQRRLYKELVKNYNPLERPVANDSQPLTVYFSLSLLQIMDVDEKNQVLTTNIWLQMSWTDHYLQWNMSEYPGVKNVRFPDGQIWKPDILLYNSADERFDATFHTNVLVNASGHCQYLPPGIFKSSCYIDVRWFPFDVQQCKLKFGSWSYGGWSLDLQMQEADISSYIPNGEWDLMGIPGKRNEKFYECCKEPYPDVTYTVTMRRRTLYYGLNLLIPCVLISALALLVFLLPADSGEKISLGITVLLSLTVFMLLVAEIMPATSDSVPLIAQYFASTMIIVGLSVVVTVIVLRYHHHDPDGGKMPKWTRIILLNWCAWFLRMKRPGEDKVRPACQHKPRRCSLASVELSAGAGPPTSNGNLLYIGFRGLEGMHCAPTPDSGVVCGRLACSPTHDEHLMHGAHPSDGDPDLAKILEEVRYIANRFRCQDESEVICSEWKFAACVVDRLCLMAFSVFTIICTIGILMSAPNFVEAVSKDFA

Work on [^125I]-α-Bungarotoxin [[^125I]-α-BTX] yielded a Kd of 1.67 nM.
